Assay results reported in patent publication US20190117657A1, “METHOD OF INHIBITING HIGH FAT DIET-RELATED CONDITIONS” (South Australian Health and Medical Research Institute …, priority 2016, published 2019).

test system: other protein kinases; experiment: not given; conditions: cited from earlier work

**Q.** With `CC(=O)C1=C(O)C=C2Oc3c(C(N)=O)c(O)cc(O)c3[C@]2(C)C1=O` [cercosporamide, (9aS)-8-Acetyl-9,9a-dihydro-1,3,7-trihydroxy-9a-methyl-9-oxo-4-dibenzofurancaboxamide] as the molecule, how does the “inhibition of other protein kinases” value read?
**A.** inhibit other protein kinases in addition to the MNKs

test system: 3T3-L1 cells; experiment: Lipid accumulation in differentiating 3T3-L1 cells (Oil Red O / triglyceride); format: cell-based; conditions: 10 μM, 3T3-L1 cells
Description: (§1) For induction of 3T3-L1 (fibroblast) cell differentiation, pre-adipocytes were grown to 2 days post-confluence in DMEM supplemented with 10% FBS (day 0) and the medium was changed to DMEM supplemented with 10% FBS, insulin (167 nM), dexamethasone (0.5 μM), isobutylmethylxanthine (IBMX) (0.5 mM) and rosiglitazone (2 μM). After 48 h, the medium was replaced with medium containing DMEM supplemented with 10% (v/v) FBS and 167 nM insulin. On day 4, after inducing differentiation, and thereafter, the cells were cultured in DMEM with 10% FBS. The maintenance medium was changed every 48 h until the cells were utilised for experimentation (9 days from the initiation of differentiation).
Assessment of intracellular triglyceride levels was performed using Oil Red O staining as described by others (Smith et al., 1988). Briefly, on day 9 of differentiation of the 3T3-L1 cells were fixed in 10% formalin for 1 hour. […] For quantification, cells were washed extensively with water to remove unbound dye, and 1 ml isopropanol was added to the stained 6-well culture plate. After 5 min, the absorbance of the oil red extract at 510 nm was measured, with an increased absorbance indicative of an increased lipid level within the cells.
The amount of tissue-released triglyceride (TAG) was measured using a Triglyceride Quantification Kit (Abcam, ab65336).

**Q.** With `CC(=O)C1=C(O)C=C2Oc3c(C(N)=O)c(O)cc(O)c3[C@]2(C)C1=O` [cercosporamide, (9aS)-8-Acetyl-9,9a-dihydro-1,3,7-trihydroxy-9a-methyl-9-oxo-4-dibenzofurancaboxamide] as the molecule, how does the lipid accumulation read?
**A.** reduced lipid accumulation

test system: MNKs; experiment: eIF4E phosphorylation (P-eIF4E immunoblot) in 3T3-L1 cells as read-out of MNK activity; format: cell-based; conditions: not given
Text: Similar data obtained in three replicate experiments.
The term “MNK inhibitor” as used herein is intended to refer to any compound that reduces the biological activity of MNK1 (including reducing the biological activity of one or both of splice variants MNK1 a and MNK1b) and/or MNK2 (including reducing the biological activity of one or both of splice variants MNK2a and MNK2b), including by reducing the amount of MNK1 and/or MNK2 expressed. For example, the MNK inhibitor may be a small organic molecule (also referred to as a “small molecule” herein), a peptide antagonist, an inhibitory antibody or fragment thereof, an interfering nucleotide molecule, an aptamer or other MNK inhibitor that inhibits the expression or biological activity as would be understood by those skilled in the art. The biological activity of MNK1 and MNK2 can be measured in a variety of ways, for example, by measuring phosphorylation of its substrate eIF4E to P-eIF4E using any suitable method known to those skilled in the art, for example, by performing an immunoblot or ELISA utilising a specific anti-P-eIF4E antibody, for example, the anti-phospho eIF4E (Ser209) antibody distributed by Merck Millipore, Catalogue No. 07-823 (Merck Millipore, Billerica, Mass., United States of America). […] Those skilled in the art will be aware of how to conduct suitable controls when measuring P-eIF4E levels. The MNK1 and/or MNK2 bioactivity can otherwise be measured using a cellular assay that can detect levels of MNK1 and/or MNK2 bioactivity. Antibodies that specifically detect phosphorylated MNK could also be used, for example, anti-P-MNK1 (Phospho-Mnk1 (Thr197/202) Antibody #2111; Cell Signaling Technology Inc, Danvers, Mass., United States of America). Additionally, those skilled in the art will appreciate that the MNK inhibitors should be safe for use for its intended purpose.
Tissues were harvested in RIPA lysis buffer containing 50 mM TrisHCl, pH 7.4, 150 mM NaCl, 1% Triton X-100, 0.1% sodium deoxycholate, 0.1% sodium dodecyl sulfate, 1 mM ethylenediaminetetraaacteic acid (EDTA), 50 mM β-glycerolphosphate, 0.5 mM NaVO3, 0.1% 2-mercaptoethanol and protease inhibitors (Roche). After lysis, insoluble material was removed by centrifugation at 12,000 g for 10 min at 4° C. Protein content was determined by the Bradford protein assay (Bio-Rad). Immunoblotting was performed as described in Liu et al. (2014). Blots were visualised using a LI-COR Odyssey® Quantitative Imaging System. Primary antibodies as indicated in Table 5 were from Cell Signaling Technologies, except for anti-P-eIF4E (Merck Millipore). Secondary antibodies were obtained from Thermo Fisher Scientific Inc. (Waltham, Mass., United States of America) and used at 1:20,000 dilution.
MNKs are the only kinases known to phosphorylate eIF4E, and accordingly, the phosphorylation of eIF4E (P-eIF4E) provides a direct read-out of MNK biological activity.
Since eIF4E is only phosphorylated by the MNKs, its phosphorylation status is a reliable read-out of intracellular MNK activity. […] MNK2 is the main MNK in 3T3-L1 cells and in adipose tissue (Moore et al., 2016). In additional studies, tests were conducted to assess the effect of the MNK-I2 inhibitor on the induction of differentiation markers in 3T3-L1 cells.

**Q.** For `COc1cc(F)ccc1Nc1ncnc2sc(C(=O)N3CCOCC3)c(C)c12` [MNK-5K], which “Comments (ability to inhibit MNKs, eIF4E phosphorylation)” value is on record?
**A.** Almost inactive

**Q.** With `Cc1c(C(=O)NCCc2c[nH]cn2)sc2ncnc(Nc3ccc(F)cc3OC(C)C)c12` [JX-MNK-7S] as the molecule, how does the “Comments (ability to inhibit MNKs, eIF4E phosphorylation)” value read?
**A.** Good activity

**Q.** Which “Comments (ability to inhibit MNKs, eIF4E phosphorylation)” value does the source give for `Cc1c(C(=O)N2CCOCC2)sc2ncnc(Nc3ccc(F)cc3OC(C)C)c12` [MNK-7K] here?
**A.** Almost inactive

**Q.** With `COc1cc(F)ccc1Nc1ncnc2sc(C(=O)N3CCN(C)CC3)c(C)c12` [MNK-5V] as the molecule, how does the “Comments (ability to inhibit MNKs, eIF4E phosphorylation)” value read?
**A.** Almost inactive

**Q.** Which “Comments (ability to inhibit MNKs, eIF4E phosphorylation)” value does the source give for `COc1cc(F)ccc1Nc1ncnc2sc(C(=O)N3CCCCC3)c(C)c12` [MNK-5J] here?
**A.** inactive

**Q.** For `Cc1c(C(=O)N2CCCCC2)sc2ncnc(Nc3ccc(F)cc3OC(C)C)c12` [MNK-7J], which “Comments (ability to inhibit MNKs, eIF4E phosphorylation)” value is on record?
**A.** inactive

**Q.** With `COc1cc(F)ccc1Nc1ncnc2sc(C(=O)NCC(C)(C)CN(C)C)c(C)c12` [MNK-5P] as the molecule, how does the “Comments (ability to inhibit MNKs, eIF4E phosphorylation)” value read?
**A.** Moderate activity

**Q.** For `Cc1c(C(=O)NC2CCCCC2)sc2ncnc(Nc3ccc(F)cc3OC(C)C)c12` [MNK-7W], which “Comments (ability to inhibit MNKs, eIF4E phosphorylation)” value is on record?
**A.** Partial activity

**Q.** With `COc1cc(F)ccc1Nc1ncnc2sc(C(=O)N3CCCC3)c(C)c12` [MNK-5X] as the molecule, how does the “Comments (ability to inhibit MNKs, eIF4E phosphorylation)” value read?
**A.** Almost inactive

**Q.** With `Cc1c(C(=O)N2CCCC2)sc2ncnc(Nc3ccc(F)cc3OC(C)C)c12` [MNK-7X] as the molecule, how does the “Comments (ability to inhibit MNKs, eIF4E phosphorylation)” value read?
**A.** Partial actvitiy

**Q.** With `COc1cc(F)ccc1Nc1ncnc2sc(C(=O)NC3CCCCC3)c(C)c12` [MNK-5W] as the molecule, how does the “Comments (ability to inhibit MNKs, eIF4E phosphorylation)” value read?
**A.** Moderate activity

**Q.** Which “Comments (ability to inhibit MNKs, eIF4E phosphorylation)” value does the source give for `Cc1c(C(=O)NCCCN2CCOCC2)sc2ncnc(Nc3ccc(F)cc3OC(C)C)c12` [MNK-7O] here?
**A.** Good activity

**Q.** For `Cc1c(C(=O)OCCc2ccccc2)sc2ncnc(Nc3ccc(F)cc3OC(C)C)c12` [MNK-7T], which “Comments (ability to inhibit MNKs, eIF4E phosphorylation)” value is on record?
**A.** inactive

**Q.** Which “Comments (ability to inhibit MNKs, eIF4E phosphorylation)” value does the source give for `Cc1c(C(=O)OCCCO)sc2ncnc(Nc3ccc(F)cc3OC(C)C)c12` [MNK-7L] here?
**A.** Partial activity

**Q.** Which “Comments (ability to inhibit MNKs, eIF4E phosphorylation)” value does the source give for `COc1cc(F)ccc1Nc1ncnc2sc(C(=O)NCCc3ccncc3)c(C)c12` [MNK-5U] here?
**A.** Moderate activity

**Q.** Which “Comments (ability to inhibit MNKs, eIF4E phosphorylation)” value does the source give for `Cc1c(C(=O)NCC(C)(C)CN(C)C)sc2ncnc(Nc3ccc(F)cc3OC(C)C)c12` [MNK-7P] here?
**A.** Good activity

**Q.** With `Cc1c(C(=O)N2CCN(C)CC2)sc2ncnc(Nc3ccc(F)cc3OC(C)C)c12` [MNK-7V] as the molecule, how does the “Comments (ability to inhibit MNKs, eIF4E phosphorylation)” value read?
**A.** Partial activity

**Q.** For `Cc1c(C(=O)OCCO)sc2ncnc(Nc3ccc(F)cc3OC(C)C)c12` [MNK-7F], which “Comments (ability to inhibit MNKs, eIF4E phosphorylation)” value is on record?
**A.** Weak activity

**Q.** With `COc1cc(F)ccc1Nc1ncnc2sc(C(=O)NCCCN3CCCC3)c(C)c12` [MNK-5M] as the molecule, how does the “Comments (ability to inhibit MNKs, eIF4E phosphorylation)” value read?
**A.** Good activity

**Q.** Which “Comments (ability to inhibit MNKs, eIF4E phosphorylation)” value does the source give for `Cc1c(C(=O)NCCCO)sc2ncnc(Nc3ccc(F)cc3OC(C)C)c12` [MNK-7I] here?
**A.** Partially active

**Q.** For `COc1cc(F)ccc1Nc1ncnc2sc(C(=O)NCCCN3CCOCC3)c(C)c12` [MNK-5O], which “Comments (ability to inhibit MNKs, eIF4E phosphorylation)” value is on record?
**A.** Good activity

**Q.** Which “Comments (ability to inhibit MNKs, eIF4E phosphorylation)” value does the source give for `Cc1c(C(=O)NCCc2ccncc2)sc2ncnc(Nc3ccc(F)cc3OC(C)C)c12` [MNK-7U] here?
**A.** Good activity

**Q.** For `COc1cc(F)ccc1Nc1ncnc2sc(C(=O)NCCc3c[nH]cn3)c(C)c12` [MNK-5S], which “Comments (ability to inhibit MNKs, eIF4E phosphorylation)” value is on record?
**A.** Moderate activity

target: MNK1 (Homo sapiens, UniProt Q9BUB5); experiment: not given; conditions: cited from earlier work
Sequence (Q9BUB5 whole entry, species assumed): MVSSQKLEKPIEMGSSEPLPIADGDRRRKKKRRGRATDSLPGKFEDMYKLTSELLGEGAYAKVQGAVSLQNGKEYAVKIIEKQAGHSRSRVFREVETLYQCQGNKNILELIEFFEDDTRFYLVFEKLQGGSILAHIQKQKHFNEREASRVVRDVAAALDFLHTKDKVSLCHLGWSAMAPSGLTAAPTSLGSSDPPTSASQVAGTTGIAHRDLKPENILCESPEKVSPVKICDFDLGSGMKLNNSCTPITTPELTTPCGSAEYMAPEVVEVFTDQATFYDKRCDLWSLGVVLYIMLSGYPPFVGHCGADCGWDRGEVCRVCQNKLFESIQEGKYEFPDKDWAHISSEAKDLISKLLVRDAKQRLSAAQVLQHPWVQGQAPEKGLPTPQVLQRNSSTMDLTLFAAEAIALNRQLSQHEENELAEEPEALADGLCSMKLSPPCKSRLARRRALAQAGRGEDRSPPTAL

**Q.** With `COC(=O)[C@@]1(C)C[C@@]2(C)O[C@]1(C)n1c3ccccc3c3c4c(c5c6ccccc6n2c5c31)C(=O)NC4` [CGP052088] as the molecule, how does the IC50 read?
**A.** 70 nM

test system: 3T3-L1 cells; experiment: Induction of adipogenic gene mRNAs in differentiating 3T3-L1 cells (RT-qPCR); format: cell-based; conditions: 10 μM, 3T3-L1 cells
Description: Total RNA was isolated from tissues (frozen at the time of sampling) using Trizol reagent (Sigma-Aldrich) according to the manufacturer's instructions. RNA concentrations were determined by absorbance at 260 nm, while quality and integrity were evaluated via 260/230 and 260/280 ratios using a NanoDrop spectrophotometer (Thermo Fisher Scientific). RT-real time PCR amplification was carried out using the ImProm-II Reverse Transcription System (A3800; Promega, Madison, Wis., United States of America) with random primers following the manufacturer's protocol. Subsequently, real-time quantitative (q) PCR was performed using primer sequences described in Supplemental Table S1 of Moore CEJ et al., 2016, the content of which is hereby incorporated by reference in its entirety). The comparative CT method was used to measure the amplification of target mRNA levels compared with […] (B2M) mRNA. In FIG. 1A, the relative amount of each transcript was determined using the equation 2^−dCt, where dCt=(Ct target gene-Ct ref gene), and Ct=cycle threshold.
as §1
In order to study the role of MNK2 in adipocyte differentiation, 3T3-L1 cells were used in a similar manner to that described in Example 1. […]

**Q.** Which “induction of adipogenic genes such as PPARγ (mRNA)” value does the source give for `CC(=O)C1=C(O)C=C2Oc3c(C(N)=O)c(O)cc(O)c3[C@]2(C)C1=O` [cercosporamide, (9aS)-8-Acetyl-9,9a-dihydro-1,3,7-trihydroxy-9a-methyl-9-oxo-4-dibenzofurancaboxamide] here?
**A.** impaired the induction of genes such as PPARγ
